Reference: BindingDB's records for PubMed 38436272 (Sorbonne University, 2024)

Target: Forkhead box protein O3 (Homo sapiens, UniProt O43524)
Assay: Induction of nuclear translocation of FOXO3 in human U2OS cells by inverted microscopic analysis

Sequence of Forkhead box protein O3 (O43524 whole entry): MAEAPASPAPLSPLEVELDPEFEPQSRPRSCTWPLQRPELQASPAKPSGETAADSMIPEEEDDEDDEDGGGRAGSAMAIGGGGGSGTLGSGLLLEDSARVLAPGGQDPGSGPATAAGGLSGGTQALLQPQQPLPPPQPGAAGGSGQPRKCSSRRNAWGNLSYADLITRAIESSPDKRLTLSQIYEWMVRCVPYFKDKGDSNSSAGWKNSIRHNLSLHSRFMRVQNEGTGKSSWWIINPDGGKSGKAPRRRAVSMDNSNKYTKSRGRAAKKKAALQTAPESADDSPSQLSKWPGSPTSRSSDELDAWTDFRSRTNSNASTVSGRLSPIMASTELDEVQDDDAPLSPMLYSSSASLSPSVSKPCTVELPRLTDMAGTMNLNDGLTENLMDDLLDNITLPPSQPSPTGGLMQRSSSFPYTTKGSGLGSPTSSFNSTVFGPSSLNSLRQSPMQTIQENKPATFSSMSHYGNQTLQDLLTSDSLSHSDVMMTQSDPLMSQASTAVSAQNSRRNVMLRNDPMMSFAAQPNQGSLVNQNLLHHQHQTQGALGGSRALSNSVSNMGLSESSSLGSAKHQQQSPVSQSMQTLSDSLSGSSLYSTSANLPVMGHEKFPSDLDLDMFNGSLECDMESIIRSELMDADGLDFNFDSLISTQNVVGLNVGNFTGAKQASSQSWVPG

EC50: 37.7 µM
SMILES: COc1cc(/C=C/C(=O)N2CCC=CC2=O)cc(OC)c1OC [CHEBI:8241]
